Results as given in patent publication US8927563B2, “Kinase inhibitor” (Respivert Limited, priority 2013, dated 2015).

Columns and labels:
[1] = tested on: adoptive transfer colitis; assay: Adoptive transfer mouse model; type: in vivo, mice
Procedure: On Study day 0, female Balb/C mice are terminated and spleens obtained for CD45RB^high cell isolation (Using SCID IBD cell Separation protocol). Approximately 4×10^5 cells/mL CD45RB^high cells are then injected intraperitoneally (100 μL/mouse) into female SCID animals. On study day 14, mice are weighed and randomized into treatment groups based on body weight. On Day 14, the compound is administered BID, via oral gavage, in a vehicle comprising a defined mixture of corn oil (32.5%), transcutol (20%), maisine (12.5%) and cremophor ELP (35%) at the dose levels outlined below in Tables 6a and 6b and a dose volume of 5 mL/kg. Treatment continues until study day 42, at which point the animals are necropsied 4 hours after the morning administration. The colon length and weight are recorded and used as a secondary endpoint in the study as a measurement of colon oedema. The colon is then divided into six cross-sections, four of which are used for histopathology scoring (primary endpoint) and two are homogenised for cytokine analysis. Data shown is the % inhibition of the induction window between naïve animals and vehicle animals, where higher inhibition implies closer to the non-diseased, naïve, phenotype.

p38 MAPKα [2] = biological target: T1, p38 MAPKα (Homo sapiens (Human), UniProt Q16539); assay: Phosphoflow assay, cellular p38 MAPKα inhibition in Jurkat cells; type: cell-based; details: H2O2 stimulated, read-out: IC50 Values, phospho-p38 MAPKα (converted)
Procedure: (§1) Jurkat T cells were cultured in starve medium (RPMI 1640+5% FBS) for 24 h prior to the experiment. Cells were harvested and resuspended at 10×10^6 cells/mL in starve medium and then plated into round-bottomed 96 well plates at 1×10^6 cells/well. Serial dilutions of test compound were added (1% final DMSO concentration) for 2 h prior to stimulation. Following pre-incubation with compound, cells were stimulated with H2O2 (0.05% final) for 5 min. The reaction was stopped by centrifugation at 2000 rpm (3 min, 4° C.), then the supernatant was removed and 100 μL of cold fix/perm solution (BD Fix/Perm kit #554714) added. Plates were incubated for 20 min at 4° C. before centrifugation and washing with supplied 1× wash medium (BD Fix/Perm kit #554714). Cells were stained for either phospho-p38α (T180/182), supplied by Cell Signalling Technology (9211s), or phospho-Lck (Y394), supplied by R&D (MAB7500). Antibodies were diluted to 5 μg/mL (R&D) or 1:200 (Cell Signalling Technology) in wash medium, before being incubated 1 h at 4° C. in the dark. Following 3 repeat washes with ice cold wash buffer, secondary antibody (anti-rabbit-FITC #F1362 or anti-mouse-FITC #F2883, both from Sigma) was added at a dilution of 1:1000 and incubated for 1 h at 4° C. in the dark. […] Cells were analysed by flow cytometry using BD Accuri C6.

Lck [3] = biological target: T2, Lck (Homo sapiens (Human), UniProt P06239); assay: KINOMEscan dissociation constant, Lck; type: binding
Procedure: (§2) Kinase enzyme binding activities of compounds disclosed herein may be determined using a proprietary assay which measures active site-directed competition binding to an immobilized ligand (Fabian, M. A. et al., Nature Biotechnol., 2005, 23:329-336). These assays may be conducted by DiscoverX (formerly Ambit; San Diego, Calif.). The percentage inhibition produced by incubation with a test compound may be calculated relative to the non-inhibited control.

Syk [4] = biological target: T3, Syk (Homo sapiens (Human), UniProt P43405); assay: KINOMEscan dissociation constant, Syk; type: binding
Procedure: as §2

Lck [5] = biological target: T2, Lck; assay: Phosphoflow assay, cellular Lck inhibition in Jurkat cells; type: cell-based; details: H2O2 stimulated, read-out: IC50 Values, phospho-Lck (converted)
Procedure: as §1

TNBS-induced colitis = TNBS-induced colitis in mice; type: in vivo
Procedure: Non-fasted, 10-12 week old, male BDF1 mice are dosed by oral gavage twice daily with either vehicle (5 mL/kg), reference item (Budesonide 2.5 mg/kg) or test compound (1 or 5 mg/kg) one day before (Day −1) stimulation of the inflammatory response by treatment with 2,4,6-trinitrobenzenesulphonic acid (TNBS) (15 mg/mL in 50% ethanol/50% saline). On Day 0 of the study, TNBS (200 μL) is administered intra-colonically via a plastic catheter with BID dosing of the vehicle, reference or test compound continuing for 2 or 4 days. During the study, animals are weighed every day and stool observations are made and recorded as a score, based on stool consistency. At the time of sacrifice on Day 2 (or Day 4), the large intestine is removed and the length and weight recorded. Sections of the colon are taken for histopathology scoring to determine disease severity.

c-Src = c-Src (Homo sapiens (Human), UniProt P12931); assay: c-Src enzyme inhibition, Z-LYTE FRET; type: biochemical
Procedure: (§3) The enzyme inhibitory activities of compounds disclosed herein are determined by FRET using synthetic peptides labelled with both donor and acceptor fluorophores (Z-LYTE, Invitrogen Ltd., Paisley, UK).
(§4) The inhibitory activities of the compound of the invention against c-Src and Syk enzymes (Invitrogen) are evaluated in a similar fashion to that described hereinabove. The relevant enzyme (3000 ng/mL or 2000 ng/mL respectively, 2.5 μL) is incubated with the test compound (either 1 μg/mL, 0.1 μg/mL, 0.01 μg/mL, or 0.001 μg/mL, 2.5 μL each) for 2 hr at RT. The FRET peptides (8 μM, 2.5 μL) and appropriate ATP solutions (2.5 μL, 800 μM for c-Src, and 60 μM ATP for Syk) are then added to the enzymes/compound mixtures and the mixture incubated for 1 hr. Development reagent (protease, 5 μL) is added for 1 hr prior to detection in a fluorescence microplate reader (Varioskan® Flash, ThermoFisher Scientific).
(§5) In all cases, the site-specific protease cleaves non-phosphorylated peptide only and eliminates the FRET signal. Phosphorylation levels of each reaction are calculated using the ratio of coumarin emission (donor) over fluorescein emission (acceptor), for which high ratios indicate high phosphorylation and low ratios indicate low phosphorylation levels.

p38 MAPKα [6] = biological target: T1, p38 MAPKα; assay: KINOMEscan dissociation constant, p38 MAPKα; type: binding
Procedure: as §2

Syk [7] = biological target: T3, Syk; assay: Syk enzyme inhibition, Z-LYTE FRET; type: biochemical
Procedure: as §3, §4, §5

[8] = 5 mg/kg orally BID, 2 days, SMEDDS vehicle

T1 sequence (Q16539 whole entry, looked up): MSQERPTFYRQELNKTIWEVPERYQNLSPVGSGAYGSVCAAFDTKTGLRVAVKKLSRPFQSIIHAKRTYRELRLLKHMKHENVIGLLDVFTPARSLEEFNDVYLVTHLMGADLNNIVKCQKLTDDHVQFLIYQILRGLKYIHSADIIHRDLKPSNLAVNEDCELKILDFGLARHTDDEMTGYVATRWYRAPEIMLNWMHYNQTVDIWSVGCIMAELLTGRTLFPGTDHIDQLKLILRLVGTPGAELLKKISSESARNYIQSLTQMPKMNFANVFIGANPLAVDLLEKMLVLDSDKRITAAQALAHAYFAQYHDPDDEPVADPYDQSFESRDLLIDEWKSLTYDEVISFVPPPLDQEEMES
T2 sequence (P06239 whole entry): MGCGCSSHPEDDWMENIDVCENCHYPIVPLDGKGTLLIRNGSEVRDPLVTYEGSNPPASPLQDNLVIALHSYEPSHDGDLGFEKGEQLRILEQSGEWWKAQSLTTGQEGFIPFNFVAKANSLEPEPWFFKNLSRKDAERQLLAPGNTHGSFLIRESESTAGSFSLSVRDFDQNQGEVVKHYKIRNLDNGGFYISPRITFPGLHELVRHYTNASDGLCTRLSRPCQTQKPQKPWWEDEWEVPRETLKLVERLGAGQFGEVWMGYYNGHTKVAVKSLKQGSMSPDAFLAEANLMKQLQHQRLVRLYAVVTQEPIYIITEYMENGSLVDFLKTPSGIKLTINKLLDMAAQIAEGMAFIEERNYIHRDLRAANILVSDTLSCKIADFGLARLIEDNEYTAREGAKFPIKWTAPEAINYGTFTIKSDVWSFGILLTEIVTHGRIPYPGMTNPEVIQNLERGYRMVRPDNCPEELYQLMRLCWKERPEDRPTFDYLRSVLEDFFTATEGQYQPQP
Chain of c-Src (P12931 whole entry, looked up): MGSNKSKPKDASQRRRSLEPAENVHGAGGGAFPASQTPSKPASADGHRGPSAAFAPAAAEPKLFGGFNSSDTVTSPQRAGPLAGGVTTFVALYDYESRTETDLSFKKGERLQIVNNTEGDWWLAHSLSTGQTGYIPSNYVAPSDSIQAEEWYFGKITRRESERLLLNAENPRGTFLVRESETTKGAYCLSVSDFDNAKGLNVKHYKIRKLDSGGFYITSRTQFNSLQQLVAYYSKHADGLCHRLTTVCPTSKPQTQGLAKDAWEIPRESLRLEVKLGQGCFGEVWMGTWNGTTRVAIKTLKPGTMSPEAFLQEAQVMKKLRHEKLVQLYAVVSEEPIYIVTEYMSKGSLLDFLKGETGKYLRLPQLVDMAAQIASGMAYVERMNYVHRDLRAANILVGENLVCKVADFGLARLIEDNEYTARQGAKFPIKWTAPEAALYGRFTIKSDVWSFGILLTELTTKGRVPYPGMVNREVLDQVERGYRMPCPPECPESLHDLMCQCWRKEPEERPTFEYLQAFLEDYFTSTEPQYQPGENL

For `C#Cc1cc(Nc2nccc(Oc3ccc(NC(=O)Nc4cc(C(C)(C)C)cc(NS(C)(=O)=O)c4OC)c4ccccc34)n2)cc(C(=O)NCCOCCOCCOC)c1` [Compound I, 3-((4-((4-(3-(5-(tert-Butyl)-2-methoxy-3-(methylsulfonamido)phenyl)ureido)naphthalen-1-yl)oxy)pyrimidin-2-yl)amino)-5-ethynyl-N-(2-(2-(2-methoxyethoxy)ethoxy)ethyl)benzamide], the “IFNγ level in colon tissue” value ([1]; 3 mg/kg) was 10.8 ± 3.3 pg/mL, the “IL-8 level in colon tissue” value ([1]; 3 mg/kg) was 70.8 ± 22.8 pg/mL and the “Colon weight:length” value ([1]; 3 mg/kg BID oral) was 0.024 ± 0.003. For the same molecule, the “% Inhibition of induction window between naïve and vehicle animals” value ([1]; 3 mg/kg BID oral, colon weight:length) was 90%, the “Colon weight:length” value ([1]; additional study, 0.03 mg/kg) was 0.033 ± 0.002 and the “Colon weight:length” value ([1]; additional study, 0.3 mg/kg) was 0.041 ± 0.005. The “Colon weight:length” value ([1]; additional study, 3 mg/kg) was 0.034 ± 0.003, the IC50 (p38 MAPKα [2]) was 23.8 nM and the Kd (Lck [3]) was 4.1 nM. For the same molecule, the Kd (Syk [4]) was 21 nM, the IC50 (Lck [5]) was 7.14 nM and the LP inflammation (TNBS-induced colitis; [8]) was 3.8 ± 0.4. For the same molecule, the Ulcer grade (TNBS-induced colitis; [8]) was 3.6 ± 0.5, the “inflammatory cell infiltrate in the reticular and laminar propria zones” value (TNBS-induced colitis; dosed orally at 5 mg/kg) was “marked reduction” and the “ulcer grade and epithelial repair compared to the vehicle control” value (TNBS-induced colitis; dosed orally at 5 mg/kg) was “marked improvements”. For the same molecule, the IC50 (c-Src) was 24 nM, the Kd (p38 MAPKα [6]) was 9 nM and the IC50 (Syk [7]) was 591 nM.
